Test results published in the supplement of paper PMC11208160.

Assay: recombinant UMI read abundance after kanamycin selection (control-corrected) (log10(CPM+1)); higher = more efficient recombination; extreme values may be limits of the assay; sequences stand for … in AGTGCAGAGAAAATCGGCCAGTTTTCTCTGCCTGCAGTCCGCATGCCGTGGGACCCCTTGGGTTCTAACCTGTTGCCTAGATTTATGCAGCGGACTGCCTTTCTCCCAAAGTGATAAACCGG…AGGTTGGTTTCACT; site = the 11-nt donor
Procedure, shortened: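 Values, expressed as log10(CPM+1), derive from recombinant UMI counts converted to CPM, averaged across replicates and scaled by control-derived factors. Plating was with IPTG (0.07 mM) plus kanamycin or unselected, two replicates each. The screen pooled donor and donor-binding-loop pairs for the IS621 bridge recombinase in Escherichia coli.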
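Further: IS621 bridge recombinase in Escherichia coli cells against a fixed T5 target plasmid.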

Sequence	recombinant UMI read abundance (log10)
CCTTTGCCATGGACCGGTTTTCCCGGTAATCCGTATTTGTG (site CCTTTGCCTCA)	0.00549
CGAACATCATGGACCGGTTTTCCCGGTAATCCGTATTTGCC (site CGAACATCTGG)	0.671
CGAACATCATGGACCGGTTTTCCCGGTAATCCGTATTTGCC (site CGATCATCTAG)	0
CGAACATCATGGACCGGTTTTCCCGGTAATCCGTATTTGCT (site CGAACATCTAG)	2.13
CGAACATCATGGACCGGTTTTCCCGGTAATCCGTATTTGCT (site CGACCATCTAG)	0.469
CGAACATCATGGACCGGTTTTCCCGGTAATCCGTATTTGCT (site CGAGCATCTAG)	1.39
CGAACATCATGGACCGGTTTTCCCGGTAATCCGTATTTGCT (site CGATCATCTAG)	0
CGAACATCATGGACCGGTTTTCCCGGTAATCCGTATTTGCT (site CGCACATCTAG)	0
CGAACATCATGGACCGGTTTTCCCGGTAATCCGTATTTGCT (site CGGACATCTAG)	0.583
CGAACATCATGGACCGGTTTTCCCGGTAATCCGTATTTGCT (site CGTACATCTAG)	0
CGAACTACATGGACCGGTTTTCCCGGTAATCCGTATTTGAG (site CGAACTACTCT)	1.95
CGAAGCCCATGGACCGGTTTTCCCGGTAATCCGTATTTGAT (site CGAAGCCCTAT)	1.22
CGACAATCATGGACCGGTTTTCCCGGTAATCCGTATTTGCT (site CGACAATCTAG)	2.77
CGACAATCATGGACCGGTTTTCCCGGTAATCCGTATTTGCT (site CGATCATCTAG)	0
CGACATACATGGACCGGTTTTCCCGGTAATCCGTATTTGCG (site CGACATACTCG)	2.76
CGACCATCATGGACCGGTTTTCCCGGTAATCCGTATTTGCG (site CGACCATCTCG)	2.23
CGACCATCATGGACCGGTTTTCCCGGTAATCCGTATTTGCG (site CGATCATCTAG)	0
CGACCCACATGGACCGGTTTTCCCGGTAATCCGTATTTGGT (site CGACCCACTAC)	1.23
CGACCGACATGGACCGGTTTTCCCGGTAATCCGTATTTGTT (site CGAACGACTAA)	0.0187
CGACCGACATGGACCGGTTTTCCCGGTAATCCGTATTTGTT (site CGACCGACTAA)	0.195
CGACCGACATGGACCGGTTTTCCCGGTAATCCGTATTTGTT (site CGAGCGACTAA)	0.00884
CGACCGACATGGACCGGTTTTCCCGGTAATCCGTATTTGTT (site CGATCGACTAA)	0.00843
CGACGACCATGGACCGGTTTTCCCGGTAATCCGTATTTGGG (site CGAAGACCTCC)	0.0167

Sequence	recombinant UMI read abundance (log10)
CGACGACCATGGACCGGTTTTCCCGGTAATCCGTATTTGGG (site CGACGACCTCC)	0.0126
CGACGACCATGGACCGGTTTTCCCGGTAATCCGTATTTGGG (site CGAGGACCTCC)	0.0314
CGACGACCATGGACCGGTTTTCCCGGTAATCCGTATTTGGG (site CGATGACCTCC)	0.0338
CGACGAGCATGGACCGGTTTTCCCGGTAATCCGTATTTGGG (site ACGTCGACTTT)	0.00438
CGACTGGCATGGACCGGTTTTCCCGGTAATCCGTATTTGTA (site CGACTGGCTTA)	1.65
CGAGATCCATGGACCGGTTTTCCCGGTAATCCGTATTTGTT (site CGAGATCCTAA)	1.4
CGAGATCCATGGACCGGTTTTCCCGGTAATCCGTATTTGTT (site CGGAATCCTAA)	0
CGAGCACCATGGACCGGTTTTCCCGGTAATCCGTATTTGGG (site CGAGAACCTCC)	0.00342
CGAGCACCATGGACCGGTTTTCCCGGTAATCCGTATTTGGG (site CGAGCACCTCC)	0.0175
CGAGCACCATGGACCGGTTTTCCCGGTAATCCGTATTTGGG (site CGAGGACCTCC)	0.0108
CGAGCACCATGGACCGGTTTTCCCGGTAATCCGTATTTGGG (site CGAGTACCTCC)	0.0136
CGAGCAGCATGGACCGGTTTTCCCGGTAATCCGTATTTGCC (site CGAGCAGCTGG)	2.69
CGAGCATCATGGACCGGTTTTCCCGGTAATCCGTATTTGGT (site CGAGCATCTAC)	2.34
CGAGCCTCATGGACCGGTTTTCCCGGTAATCCGTATTTGCG (site CGAGCCTCTCG)	2.41
CGAGCGACATGGACCGGTTTTCCCGGTAATCCGTATTTGAA (site CGAGCGACTTT)	1.74
CGAGCTTCATGGACCGGTTTTCCCGGTAATCCGTATTTGCT (site CGAGCTTCTAG)	1.85
CGAGCTTCATGGACCGGTTTTCCCGGTAATCCGTATTTGCT (site CGATCATCTAG)	0
CGAGGGACATGGACCGGTTTTCCCGGTAATCCGTATTTGTC (site CGAGGGACTGA)	2.59
CGAGTACCATGGACCGGTTTTCCCGGTAATCCGTATTTGAC (site CGAGTACCTGT)	0
CGAGTACCATGGACCGGTTTTCCCGGTAATCCGTATTTGAC (site CTAGTATCTGT)	0
CGAGTATCATGGACCGGTTTTCCCGGTAATCCGTATTTGAC (site CAAGTATCTGT)	2.57
CGAGTATCATGGACCGGTTTTCCCGGTAATCCGTATTTGAC (site CCAGTATCTGT)	1.99
CGAGTATCATGGACCGGTTTTCCCGGTAATCCGTATTTGAC (site CGAGTATCTGT)	3.24

Sequence	recombinant UMI read abundance (log10)
CGAGTATCATGGACCGGTTTTCCCGGTAATCCGTATTTGAC (site CTAGTATCTGT)	2.01
CGAGTATCATGGACCGGTTTTCCCGGTAATCCGTATTTGCT (site CGAGTATCTAG)	2.71
CGAGTATCATGGACCGGTTTTCCCGGTAATCCGTATTTGCT (site CGATCATCTAG)	0
CGAGTGGCATGGACCGGTTTTCCCGGTAATCCGTATTTGGT (site AGAGTGGCTAC)	0.574
CGAGTGGCATGGACCGGTTTTCCCGGTAATCCGTATTTGGT (site CGAGTGGCTAC)	1.1
CGAGTGGCATGGACCGGTTTTCCCGGTAATCCGTATTTGGT (site GGAGTGGCTAC)	0.0253
CGAGTGGCATGGACCGGTTTTCCCGGTAATCCGTATTTGGT (site TGAGTGGCTAC)	0.0187
CGAGTGTCATGGACCGGTTTTCCCGGTAATCCGTATTTGAC (site CGAGTGTCTGT)	2.13
CGAGTGTCATGGACCGGTTTTCCCGGTAATCCGTATTTGAC (site CTAGTATCTGT)	0.545
CGATAAACATGGACCGGTTTTCCCGGTAATCCGTATTTGCG (site CGATAAACTCG)	2.63
CGATAATCATGGACCGGTTTTCCCGGTAATCCGTATTTGCT (site CGATAATCTAG)	2.99
CGATAATCATGGACCGGTTTTCCCGGTAATCCGTATTTGCT (site CGATCATCTAG)	0
CGATAATCATGGACCGGTTTTCCCGGTAATCCGTATTTGCT (site CGATGATCTAG)	0
CGATAATCATGGACCGGTTTTCCCGGTAATCCGTATTTGCT (site CGATTATCTAG)	0.415
CGATAGACATGGACCGGTTTTCCCGGTAATCCGTATTTGAG (site CGATAGACTCT)	2.32
CGATAGACATGGACCGGTTTTCCCGGTAATCCGTATTTGAG (site CGCTAGACTCT)	0.00552
CGATAGACATGGACCGGTTTTCCCGGTAATCCGTATTTGAG (site CGGTAGACTCT)	0.902
CGATAGACATGGACCGGTTTTCCCGGTAATCCGTATTTGAG (site CGTTAGACTCT)	0.979
CGATAGACATGGACCGGTTTTCCCGGTAATCCGTATTTGTT (site CGATAGACTAA)	2
CGATAGACATGGACCGGTTTTCCCGGTAATCCGTATTTGTT (site CGATCGACTAA)	0.04
CGATAGACATGGACCGGTTTTCCCGGTAATCCGTATTTGTT (site CGATGGACTAA)	0.0144
CGATAGACATGGACCGGTTTTCCCGGTAATCCGTATTTGTT (site CGATTGACTAA)	0.00602
